Assay results from patent US6608027B1, “Macrocyclic peptides active against the hepatitis C virus” (Boehringer Ingelheim (Canada) Ltd, priority 1999, dated 2003).

Molecular target: T1, NS3 protease (Hepatitis C virus genotype 1b, UniProt P26663)
T1 construct: expressed in transfected cells; host or cells: Huh-7 human hepatoma cells, transient co-transfection (CMV promoter)
Experiment: NS3 protease cell-based assay (SEAP reporter, Huh-7 cells)
Design: species or system HCV
Details: SEAP activity, 24-hour incubation, read-out: cell. act. (EC50 code)
Text: This assay is done with Huh-7 cells, a human cell line derived from a hepatoma, co-transfected with 2 DNA constructs: one (called NS3) expressing part of the HCV non-structural polyprotein fused to the tTA protein through an NS5A-NS5B cleavage site in the following order: NS3-NS4A-NS4B-NS5A-(NS5B)tTA where (NS5B) represents the 6 first amino acids of NS5
B. This polyprotein is expressed under the control of the CMV promoter, the other (called SEAP) expressing the reporter protein, secreted alkaline phosphatase (SEAP), under the regulation of a tTA-responsive promoter. The first construct leads to the expression of a polyprotein from which the different mature proteins are released through cleavage by the NS3 protease. It is believed that the mature viral proteins forms a complex at the membrane of the endoplasmic reticulum. tTA is a fusion protein, described by Gossen and Bujard (Proc. Natl. Acad. Sci. USA 89 (1992): 5547-5551), which contains a DNA-binding domain and a transcriptional activator. Release of the tTA protein requires an NS3-dependent cleavage at the NS5A-NS5B cleavage site between NS5A and itself. This last cleavage allows tTA to migrate to the nucleus and transactivate the SEAP gene. Therefore, reduction of NS3 proteolytic activity leads to confinement of tTA to the cytoplasm and concomitant decrease in SEAP activity.
To control for cellular activities other than inhibition of NS3 protease which are due to the compound, a parallel co-transfection is done with a construct expressing tTA alone and the same reporter construct such that SEAP activity is independent of the NS3 protease.
Protocol of the assay: Huh-7 cells, grown in CHO-SFMII (Life Technologies)+10% FCS (fetal calf serum) were co-transfected with the two DNA constructs in the following proportions: 7 μg NS3+500 ng SEAP+[…] FuGENE (Boehringer Mannheim) per 4×10^6 Huh-7 cells. After 5 hours at 37° C., the cells were washed, trypsinized and plated (at 80 000 cells/well) in 96-well plates containing a range of concentrations of the compounds to be tested. After a 24-hour incubation period, the SEAP activity in the medium was measured with the Phospha-Light kit (Tropix).
Analysis of the percent inhibition of SEAP activity with respect to compound concentration was performed with the SAS software to obtain the EC50.

T1 sequence (P26663 1658-1711): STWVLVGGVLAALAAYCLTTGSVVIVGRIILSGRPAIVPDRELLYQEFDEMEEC
T1 sequence (P26663 1027-1657): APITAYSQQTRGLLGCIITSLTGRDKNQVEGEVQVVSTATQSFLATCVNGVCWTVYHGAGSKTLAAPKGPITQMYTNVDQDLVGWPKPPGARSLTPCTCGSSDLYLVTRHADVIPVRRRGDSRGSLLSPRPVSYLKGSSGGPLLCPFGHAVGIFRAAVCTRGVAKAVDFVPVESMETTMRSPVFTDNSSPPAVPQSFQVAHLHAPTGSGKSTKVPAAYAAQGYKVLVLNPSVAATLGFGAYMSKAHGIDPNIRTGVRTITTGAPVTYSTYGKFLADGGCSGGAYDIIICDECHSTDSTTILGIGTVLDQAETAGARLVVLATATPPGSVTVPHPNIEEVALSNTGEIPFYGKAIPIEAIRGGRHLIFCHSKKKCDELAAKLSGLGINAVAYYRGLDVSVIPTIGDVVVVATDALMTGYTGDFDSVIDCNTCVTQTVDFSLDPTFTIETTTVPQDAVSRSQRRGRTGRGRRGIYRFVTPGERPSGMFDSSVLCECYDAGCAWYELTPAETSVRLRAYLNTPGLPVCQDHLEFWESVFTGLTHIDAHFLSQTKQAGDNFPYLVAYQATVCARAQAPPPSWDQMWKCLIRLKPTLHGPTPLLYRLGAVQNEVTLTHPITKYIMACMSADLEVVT

SMILES	EC50
COc1ccc2c(O[C@@H]3C[C@H]4C(=O)N[C@]5(C(=O)O)C[C@H]5/C=C\COCCC[C@H](NC(=O)OC(C)(C)C)C(=O)N4C3)cc(-c3ccccc3)nc2c1 [Compound 701]	> 1 µM
COc1ccc2c(O[C@@H]3C[C@H]4C(=O)N[C@]5(C(=O)O)C[C@H]5/C=C\CCCCC[C@H](NC(=O)OC(C)(C)C)C(=O)N4C3)cc(-c3csc(NC(C)=O)n3)nc2c1 [Compound 702]	≤ 1 µM
CCNc1nc(-c2cc(O[C@@H]3C[C@H]4C(=O)N[C@]5(C(=O)O)CC5CCCCCCC[C@H](NC(=O)OC(C)(C)C)C(=O)N4C3)c3ccc(OC)cc3n2)cs1 (stereo partly shown) [Compound 703]	≤ 1 µM
COc1ccc2c(O[C@@H]3C[C@H]4C(=O)N[C@]5(C(=O)O)C[C@H]5/C=C\CCCCC[C@H](NC(=O)OC(C)(C)C)C(=O)N4C3)cc(-c3ccccn3)nc2c1 [Compound 704]	≤ 1 µM
COc1ccc2c(O[C@@H]3C[C@H]4C(=O)N[C@]5(C(=O)O)C[C@H]5/C=C\CCCCC[C@H](NC(=O)OC(C)(C)C)C(=O)N4C3)cc(-c3nccs3)nc2c1 [Compound 705]	≤ 1 µM
COc1ccc2c(O[C@@H]3C[C@H]4C(=O)N[C@]5(C(=O)O)C[C@H]5/C=C\CCCCC[C@H](NC(=O)OC(C)(C)C)C(=O)N4C3)cc(-c3csc(C(C)C)n3)nc2c1 [Compound 707]	≤ 1 µM
CCNc1nc(-c2cc(O[C@@H]3C[C@H]4C(=O)N[C@]5(C(=O)O)C[C@H]5/C=C\CCCCC[C@H](NC(=O)OC(C)(C)C)C(=O)N4C3)c3ccc(OC)cc3n2)cs1 [Compound 708]	≤ 1 µM
CCOc1cc(O[C@@H]2C[C@H]3C(=O)N[C@]4(C(=O)O)C[C@H]4/C=C\CCCCC[C@H](NC(=O)OC(C)(C)C)C(=O)N3C2)c2ccc(OC)cc2n1 [Compound 712]	≤ 1 µM
COc1ccc2c(O[C@@H]3C[C@H]4C(=O)N[C@]5(C(=O)O)C[C@H]5/C=C\CCCCC[C@H](NC(=O)OC(C)(C)C)C(=O)N4C3)cc(-n3cccc3)nc2c1 [Compound 715]	≤ 1 µM
COc1ccc2c(O[C@@H]3C[C@H]4C(=O)N[C@]5(C(=O)O)CC5/C=C\CCCCC[C@H](NC(=O)OC(C)(C)C)C(=O)N4C3)cc(-c3nnc(C)o3)nc2c1 (stereo partly shown) [Compound 716]	> 1 µM
COc1ccc2c(O[C@@H]3C[C@H]4C(=O)N[C@]5(C(=O)O)CC5/C=C\CCCCC[C@H](NC(=O)OC(C)(C)C)C(=O)N4C3)cc(-c3nc(C)no3)nc2c1 (stereo partly shown) [Compound 717]	≤ 1 µM
COc1ccc2c(O[C@@H]3C[C@H]4C(=O)N[C@]5(C(=O)O)CC5/C=C\CCCCC[C@H](NC(=O)OC(C)(C)C)C(=O)N4C3)cc(-n3ccnc3)nc2c1 (stereo partly shown) [Compound 718]	≤ 1 µM
COc1ccc2c(O[C@@H]3C[C@H]4C(=O)N[C@]5(C(=O)O)C[C@H]5/C=C\CCCCC[C@H](NC(=O)OC(C)(C)C)C(=O)N4C3)cc(-c3cccc(C)n3)nc2c1 [Compound 719]	≤ 1 µM
COc1ccc2c(O[C@@H]3C[C@H]4C(=O)N[C@]5(C(=O)O)CC5/C=C\CCCCC[C@H](NC(=O)OC(C)(C)C)C(=O)N4C3)cc(-n3cnc(C)c3)nc2c1 (stereo partly shown) [Compound 722]	≤ 1 µM
COc1ccc2c(O[C@@H]3C[C@H]4C(=O)N[C@]5(C(=O)O)CC5/C=C\CCCCC[C@H](NC(=O)OC(C)(C)C)C(=O)N4C3)cc(-c3nc(C(C)C)cs3)nc2c1 (stereo partly shown) [Compound 725]	≤ 1 µM
COc1ccc2c(O[C@@H]3C[C@H]4C(=O)N[C@]5(C(=O)O)CC5/C=C\CCCCC[C@H](NC(=O)OC(C)(C)C)C(=O)N4C3)cc(-c3nccn3C)nc2c1 (stereo partly shown) [Compound 726]	≤ 1 µM
COCc1cc(O[C@@H]2C[C@H]3C(=O)N[C@]4(C(=O)O)C[C@H]4/C=C\CCCCC[C@H](NC(=O)OC(C)(C)C)C(=O)N3C2)c2ccc(OC)cc2n1 [Compound 727]	> 1 µM

SMILES	EC50
COc1ccc2c(O[C@@H]3C[C@H]4C(=O)N[C@]5(C(=O)O)C[C@H]5/C=C\CCCCC[C@H](NC(=O)OC(C)(C)C)C(=O)N4C3)cc(C)nc2c1 [Compound 728]	> 1 µM
CNc1nc(-c2cc(O[C@@H]3C[C@H]4C(=O)N[C@]5(C(=O)O)C[C@H]5/C=C\CCCCC[C@H](NC(=O)OC(C)(C)C)C(=O)N4C3)c3ccc(OC)cc3n2)cs1 [Compound 729]	≤ 1 µM
COc1ccc2c(O[C@@H]3C[C@H]4C(=O)N[C@]5(C(=O)O)C[C@H]5/C=C\CCCCC[C@H](NC(=O)OC(C)(C)C)C(=O)N4C3)cc(-c3csc(N)n3)nc2c1 [Compound 731]	≤ 1 µM
COc1ccc2c(O[C@@H]3C[C@H]4C(=O)N[C@]5(C(=O)O)C[C@H]5/C=C\CCCCC[C@H](NC(=O)OC(C)(C)C)C(=O)N4C3)cc(C3CCC=CO3)nc2c1 (stereo partly shown) [Compound 732]	> 1 µM
COc1ccc2c(O[C@@H]3C[C@H]4C(=O)N[C@]5(C(=O)O)CC5/C=C\CCCCC[C@H](NC(=O)OC(C)(C)C)C(=O)N4C3)cc(-n3cccn3)nc2c1 (stereo partly shown) [Compound 733]	≤ 1 µM
COc1ccc2c(O[C@@H]3C[C@H]4C(=O)N[C@]5(C(=O)O)CC5/C=C\CCCCC[C@H](NC(=O)OC(C)(C)C)C(=O)N4C3)cc(-n3cc(C)cn3)nc2c1 (stereo partly shown) [Compound 734]	≤ 1 µM
COc1ccc2c(O[C@@H]3C[C@H]4C(=O)N[C@]5(C(=O)O)C[C@H]5/C=C\CCCCC[C@H](NC(=O)OC(C)(C)C)C(=O)N4C3)cc(-c3csc(NC=O)n3)nc2c1 [Compound 735]	≤ 1 µM
COC(=O)Nc1nc(-c2cc(O[C@@H]3C[C@H]4C(=O)N[C@]5(C(=O)O)C[C@H]5/C=C\CCCCC[C@H](NC(=O)OC(C)(C)C)C(=O)N4C3)c3ccc(OC)cc3n2)cs1 [Compound 736]	≤ 1 µM
COc1ccc(-c2cc(O[C@@H]3C[C@H]4C(=O)N[C@]5(C(=O)O)C[C@H]5/C=C\CCCCC[C@H](NC(=O)OC(C)(C)C)C(=O)N4C3)c3ccc(OC)cc3n2)nc1 [Compound 737]	≤ 1 µM
COc1ccc2c(O[C@@H]3C[C@H]4C(=O)N[C@]5(C(=O)O)CC5/C=C\CCCCC[C@H](NC(=O)OC(C)(C)C)C(=O)N4C3)cc(-n3ccc(C)n3)nc2c1 (stereo partly shown) [Compound 738]	≤ 1 µM
COc1ccc2c(O[C@@H]3C[C@H]4C(=O)N[C@]5(C(=O)O)C[C@H]5/C=C\CCCCC[C@H](NC(=O)OC(C)(C)C)C(=O)N4C3)cc(-c3csc(NC(C)C)n3)nc2c1 [Compound 741]	≤ 1 µM
CCNc1nc(-c2cc(O[C@@H]3C[C@H]4C(=O)N[C@]5(C(=O)O)CC5/C=C\CCCCC[C@H](NC(=O)OC5CCCC5)C(=O)N4C3)c3ccc(OC)cc3n2)cs1 (stereo partly shown) [Compound 810]	≤ 1 µM
CNc1nc(-c2cc(O[C@@H]3C[C@H]4C(=O)N[C@]5(C(=O)O)CC5/C=C\CCCCC[C@H](NC(=O)OC5CCCC5)C(=O)N4C3)c3ccc(OC)cc3n2)cs1 (stereo partly shown) [Compound 811]	≤ 1 µM
COC(=O)Nc1nc(-c2cc(O[C@@H]3C[C@H]4C(=O)N[C@]5(C(=O)O)CC5/C=C\CCCCC[C@H](NC(=O)OC5CCCC5)C(=O)N4C3)c3ccc(OC)cc3n2)cs1 (stereo partly shown) [Compound 818]	≤ 1 µM
COc1ccc2c(O[C@@H]3C[C@H]4C(=O)N[C@]5(C(=O)O)CC5/C=C\CCCCC[C@H](NC(=O)OC5CCCC5)C(=O)N4C3)cc(-c3csc(NC(=O)OCC(C)C)n3)nc2c1 (stereo partly shown) [Compound 819]	≤ 1 µM
COc1ccc2c(O[C@@H]3C[C@H]4C(=O)N[C@]5(C(=O)O)CC5/C=C\CCCCC[C@H](NC(=O)OC5CCCC5)C(=O)N4C3)cc(-c3csc(NC(C)C)n3)nc2c1 (stereo partly shown) [Compound 822]	≤ 1 µM
COc1ccc2c(O[C@@H]3C[C@H]4C(=O)N[C@]5(C(=O)O)CC5/C=C\CCCCC[C@H](NC(=O)OC5CCCC5)C(=O)N4C3)cc(-c3csc(NC4CC4)n3)nc2c1 (stereo partly shown) [Compound 825]	≤ 1 µM
